What was measured:
[1] = system: LTB4 production in human whole blood; assay: Inhibition of LTB4 Production in Blood; assay type: cell-based; conditions: 1 h, 20 μM A23187, 60 minutes at 37° C., LTB4 in plasma by ELISA, read-out: protection against LTB4 at an EC50
Summary of the method: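 Citrated human whole blood preincubated 15 min at 37 °C with compound (top final 30 μM, 1:3 dilutions, quadruplicate), then stimulated with 20 μM A23187 for 60 min at 37 °C. Plasma LTB4 quantified by ELISA; IC50 from percent inhibition versus vehicle.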

[2] = system: release of the leukotriene LTB4 from a neutrophil cell line (MPRO cell line); assay: LTB4-Cell Assay; assay type: cell-based; conditions: Mus musculus, 1 h, read-out: inhibition of LTB4 with an EC50
Summary of the method: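 Mouse promyelocytic cells differentiated to neutrophils with 10 μM all-trans retinoic acid for 72 h, then stimulated with 1 μM A23187 plus compound for 1 h at 37° C. Supernatant LTB4 quantified by competitive EIA; 5 concentrations in quadruplicate from 10 μM top.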

[3] = molecular target: T1, porcine leukocyte 12/15-Lipoxygenase (Sus scrofa, UniProt P16469); assay: 12/15-Lipoxygenase Enzyme Assay; assay type: biochemical; conditions: 70 μM arachidonic acid, 10 minute incubation at room temperature, FOX reagent, absorbance at 620 nm; read-out: inhibition of 12/15-Lipoxygenase with an IC50
T1 sequence (P16469 1-663): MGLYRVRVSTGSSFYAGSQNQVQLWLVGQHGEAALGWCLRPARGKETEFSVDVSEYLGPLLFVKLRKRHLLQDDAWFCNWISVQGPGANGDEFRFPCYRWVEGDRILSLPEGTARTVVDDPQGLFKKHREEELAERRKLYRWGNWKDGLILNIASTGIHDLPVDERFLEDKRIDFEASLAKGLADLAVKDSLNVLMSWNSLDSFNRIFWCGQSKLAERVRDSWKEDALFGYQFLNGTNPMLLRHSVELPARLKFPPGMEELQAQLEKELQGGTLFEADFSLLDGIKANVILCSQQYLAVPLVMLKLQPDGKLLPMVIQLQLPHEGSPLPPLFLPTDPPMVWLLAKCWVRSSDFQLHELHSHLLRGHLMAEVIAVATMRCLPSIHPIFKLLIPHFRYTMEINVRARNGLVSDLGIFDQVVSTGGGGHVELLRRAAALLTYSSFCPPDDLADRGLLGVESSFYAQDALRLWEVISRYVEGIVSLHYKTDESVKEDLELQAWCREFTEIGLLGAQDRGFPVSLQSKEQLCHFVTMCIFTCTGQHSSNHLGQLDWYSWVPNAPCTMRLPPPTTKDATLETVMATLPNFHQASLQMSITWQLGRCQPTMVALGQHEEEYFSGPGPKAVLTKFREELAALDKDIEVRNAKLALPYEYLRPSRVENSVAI
Excerpt: This procedure was used for measuring the enzymatic activity of porcine leukocyte 12/15-Lipoxygenase using a […] method based on the ferric oxidation of xylenol orange.
• 96 well flat bottom microfilter plates (VWR, Catalog # 62402-933 9295) • Lipoxygenase screening assay buffer (Cayman, Catalog # 760710) • Porcine leukocyte 12/15-Lipoxygenase (Cayman, Catalog # 60300) • Arachidonic Acid (Sigma, Catalog # A3555) • Xylenol orange tetrasodium salt (Aldrich, Catalog # 227854) • Iron (II) sulfate heptahydrate (Sigma, Catalog # F7002) • Sulfuric acid (95-98%) [18M] • Methanol Procedure
Porcine Leukocyte 12/15-Lipoxygenase (Cayman Cat # 60300) was used in this assay. Test compound and/or vehicle was added to 1.3 μL 12/15-Lipoxygenase in 50 mM Tris-HCl buffer, pH 7.4. The reaction was initiated by addition of 70 μM arachidonic acid in Tris-HCl buffer, pH 7.4, and terminated after a 10 minute incubation at room temperature by addition of FOX reagent (25 mM sulfuric acid, 100 μM xylenol orange, 100 μM iron (II) sulfate, methanol:water 9:1). The yellow color of acidified xylenol orange was converted to a blue color by the lipid hydroperoxide-mediated oxidation of Fe^2+ ions and the interaction of the resulting Fe^3+ ions with the dye. The complex was allowed to form during a 1 hour incubation at room temperature with shaking. Absorbance of the Fe^3+ complex was then measured at […] using a spectrophotometer.
Negative controls contained enzyme during the incubation step but substrate was not added until after the FOX reagent. Compounds are screened at 5 concentrations in triplicate starting at 10 μM

[4] = molecular target: T2, human recombinant 5-Lipoxygenase (Homo sapiens, UniProt P09917); assay: 5-Lipoxygenase Enzyme Assay; assay type: biochemical; conditions: 70 μM arachidonic acid, 10 minute incubation at room temperature, FOX reagent, absorbance at 620 nm; read-out: inhibition of 5-Lipoxygenase with an IC50
T2 sequence (P09917 1-674): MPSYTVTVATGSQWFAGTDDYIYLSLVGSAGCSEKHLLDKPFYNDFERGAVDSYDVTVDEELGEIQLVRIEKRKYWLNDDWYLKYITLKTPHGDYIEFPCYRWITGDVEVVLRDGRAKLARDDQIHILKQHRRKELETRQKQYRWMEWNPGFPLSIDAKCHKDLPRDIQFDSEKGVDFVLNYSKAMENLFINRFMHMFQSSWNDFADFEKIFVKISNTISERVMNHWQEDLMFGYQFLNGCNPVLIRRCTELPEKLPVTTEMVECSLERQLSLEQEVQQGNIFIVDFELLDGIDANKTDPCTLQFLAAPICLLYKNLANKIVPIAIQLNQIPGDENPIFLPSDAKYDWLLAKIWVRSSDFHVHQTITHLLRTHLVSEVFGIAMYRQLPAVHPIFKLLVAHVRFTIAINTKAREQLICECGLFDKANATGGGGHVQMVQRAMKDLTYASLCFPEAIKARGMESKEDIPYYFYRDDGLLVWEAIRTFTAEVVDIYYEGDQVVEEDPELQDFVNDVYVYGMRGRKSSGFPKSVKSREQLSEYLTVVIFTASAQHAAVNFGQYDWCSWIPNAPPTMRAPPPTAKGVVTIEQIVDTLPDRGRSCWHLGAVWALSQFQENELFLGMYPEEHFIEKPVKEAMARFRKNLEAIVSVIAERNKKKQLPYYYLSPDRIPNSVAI
Summary of the method: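 Recombinant human 5-LOX in 50 mM Tris-HCl pH 7.4 was preincubated with compound, then 70 μM arachidonic acid was added for 10 min at room temperature. Hydroperoxide was read by FOX reagent (ferric xylenol orange, 1 h complex formation) as absorbance at 620 nm. Five concentrations in triplicate were tested, starting at 10 μM.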

SMILES | EC50 [1] | EC50 [2] | IC50 [3] | IC50 [4]
CO/N=C/C1=Cc2c(cc(C)c(O)c2C)OC12CCC2 [6-hydroxy-5,7-dimethylspiro[chromene-2,1′-cyclobutane]-3-carbaldehyde O-methyloxime] | < 10 µM | < 5 µM | < 5 µM | 
Cc1c(C)c2c(c(C)c1O)CCC1(CCC1)S2 [5′,7′,8′-trimethyl-3′,4′-dihydrospiro[cyclobutane-1,2′-thiochromen]-6′-ol] |  | < 5 µM | < 5 µM | < 0.3 µM
Cc1c(O)c(C)c2c(c1Cl)OC1(CCC1)CC2 [8-chloro-5,7-dimethyl-3,4-dihydrospiro[chromene-2,1′-cyclobutan]-6-ol] |  | < 5 µM | < 5 µM | < 0.3 µM
CCOC1CC2(CCC2)Oc2c(C)c(C)c(O)c(C)c21 (stereo not drawn) [4-ethoxy-5,7,8-trimethyl-3,4-dihydrospiro[chromene-2,1′-cyclobutan]-6-ol] |  | < 5 µM | < 5 µM | < 0.3 µM
Cc1c(C)c2c(c(C)c1O)CCC1(CCC1)O2 [5,7,8-trimethyl-3,4-dihydrospiro[chromene-2,1′-cyclobutan]-6-ol] |  | < 5 µM | < 5 µM | < 0.3 µM
Cc1c(O)cc(Cl)c2c1CCC1(CCC1)O2 [8-chloro-5-methyl-3,4-dihydrospiro[chromene-2,1′-cyclobutan]-6-ol] |  | < 5 µM | < 5 µM | < 0.3 µM
Cc1c(C)c2c(c(C)c1O)C(SC(C)C)CC1(CCC1)O2 (stereo not drawn) [4-(isopropylthio)-5,7,8-trimethyl-3,4-dihydrospiro[chromene-2,1′-cyclobutan]-6-ol] |  | < 5 µM | < 5 µM | < 0.3 µM
